How the values were obtained:
[1] = test system: G1H-G93A transgenic mice; assay: Exercise tolerance test: extension reflex test; type: in vivo, mouse; details: for Extension reflex test score: 5 mg/kg oral daily from 80th day (before onset), score 0-2; for effect in extension reflex test as compared to placebo group: 105th, 110th, 115th and 120th day, 5 mg/kg oral daily from 80th day after birth, Mann-Whitney's U test
Procedure: The following five kinds of exercise tolerance tests were conducted every fifth day from the 70th day after birth to evaluate the ability to exercise in the respective exercise tolerance tests. That is, the days for the exercise tolerance tests were every fifth days, such as the 70th day, 75th day, 80th day, 85th day and so on, after birth. The exercise tolerance tests were conducted throughout the survival period, and the post-mortem evaluation was based on the definitions of the following five kinds of exercise tolerance tests.
As for extension reflex, extension of the hindlimbs is normally observed when a mouse is suspended in the air by its tail.
The evaluation of extension reflex test of the mice was performed based on the following criteria: Score 0=Extension reflex is recognized in both of the hindlimbs; Score 1=Extension reflex is recognized only one hindlimb; and Score 2=Extension reflex is not recognized in both of the hindlimbs. The post-mortem evaluation of the extension reflex test is defined as score 2.

[2] = test system: G1H-G93A transgenic mice; assay: Clinical symptomatological evaluation (day of onset, survival period, disease period, stage periods); type: in vivo, mouse; details: for time periods for the respective stages in comparison to placebo group / disease period extending effect in comparison to placebo group / onset delaying effect in comparison to placebo group / survival period extending effect in comparison to placebo group: Mann-Whitney's U test; for disease period extending effect in comparison to placebo group / onset delaying effect in comparison to placebo group / survival period extending effect in comparison to placebo group: log-rank test; for day of onset / disease period / survival period / time period of clinical symptomatological stage 1 / time period of clinical symptomatological stage 2 / time period of clinical symptomatological stage 3 / time period of clinical symptomatological stage 4 / time period of clinical symptomatological stage 5: average±SD
Procedure: 1) The procedure of concentration adjustment, and the amount and the procedure of administration of the compound (a) were as described below. As a base, 0.5% methylcellulose is prepared. 5 mg of the compound (a) is pulverized in an agate mortar, and then a small amount of 0.5% methylcellulose is added to form a complete suspension. Subsequently, a small amount of 0.5% methylcellulose is added gradually, so that finally 5 mg of the compound (a) is suspended in 10 mL of 0.5% methylcellulose. A sample of 5 mg of compound (a)/10 mL of 0.5% methylcellulose (5 mg/10 mL) was prepared by the above-described procedure, and thus the compound (a) was orally administered once a day in a dose of 5 mg per kg of the mouse body weight (5 mg/kg).
As the experimental animal, male transgenic mice over-expressing a high copy number (25 copies) of mutated human SOD1 gene with a G93A point mutation, i.e., B6SJL-TgN [SOD1-G93A]1Gur (G1H-G93A transgenic mice, JR2726; Hemizygote) (Gurney M E, et al., Science, 264, 1772-1775, 1994), were purchased from Jackson Laboratory (Bar Harbor, USA) and used. At the same time, wild-type male mice from the same litter, B6SJL-TgN[SOD1-G93A]1Gur (Wild-type), were also purchased from Jackson Laboratory and used.
The mice were subjected to a clinical symptomatological evaluation everyday. The clinical symptomatological evaluation was performed from one week after the arrival from Jackson Laboratory. […] The day of onset, the survival period and the disease period were indicated by the number of days. In regard to the indication of the number of days of the disease period, one day (one disease day) corresponds to within 24 hours from the onset (the “onset” is determined by the observation of the clinical symptomatological evaluation stage 1), and two days (two disease days) corresponds to more than 24 hours after and within 48 hours from the onset. Subsequent disease days after the onset were determined in the same manner.
The mice were divided into seven experimental groups, to which a placebo, the compound (a), compound (b), compound (c) or allopurinol was administered. That is, the seven groups consist of: an experimental group administered with placebo; a treatment experimental group administered with compound (a) before onset; a treatment experimental group administered with compound (a) after onset; a treatment experimental group administered with compound (b) before onset; a treatment experimental group administered with compound (c) before onset; a treatment experimental group administered with compound (c) after onset; and a treatment group administered with allopurinol before onset. Details of the respective groups will be described in the following.
Ten G1H-G93A transgenic mice were used. From the 80th day after birth, 5 mg/kg of the compound (a) was orally administered everyday. […]
Ten G1H-G93A transgenic mice were used. From the 80th day after birth, 5 mg/kg of the compound (b) was orally administered everyday.
Ten G1H-G93A transgenic mice were used. From the 80th day after birth, 5 mg/kg of the compound (c) was orally administered everyday. […]
Ten G1H-G93A transgenic mice were used. From the 80th day after birth, 5 mg/kg of allopurinol was orally administered everyday.
In regard to the results of the clinical symptomatological evaluation, the day of onset, the survival period (days taken to show quadriplegia and to reach the moribund state), the disease period (days taken to show quadriplegia and to reach the moribund state, from the day of onset), and the time periods for the respective stages of the clinical symptomatological evaluation, were indicated by the average±standard deviation. In regard to the results of the exercise tolerance test, the score values of the respective exercise tolerance tests, including the extension reflex test, inclined plane test, footprint test, rotarod test and beam balance test, were indicated by the average±standard deviation. […]

[3] = 5 mg/kg oral daily from 80th day after birth (before onset)
[4] = 5 mg/kg oral daily from the day of onset (after onset)
[5] = 5 mg/kg oral once a day from 80th day after birth (before onset)
[6] = 5 mg/kg oral once a day from the onset (after onset)

CC(C)(C)COc1ccc(-n2cc(C(=O)O)cn2)cc1C#N [compound (a), 1-[3-cyano-4-(2,2-dimethylpropoxy)phenyl]-1H-pyrazole-4-carboxylic acid]
Extension reflex test score ([1]; 70th day after birth, 5 mg/kg): 0.0±0.0
Extension reflex test score ([1]; 75th day after birth, 5 mg/kg): 0.0±0.0
Extension reflex test score ([1]; 80th day after birth, 5 mg/kg): 0.0±0.0
Extension reflex test score ([1]; 85th day after birth, 5 mg/kg): 0.0±0.0
Extension reflex test score ([1]; 90th day after birth, 5 mg/kg): 0.0±0.0
Extension reflex test score ([1]; 95th day after birth, 5 mg/kg): 0.0±0.0
Extension reflex test score ([1]; 100th day after birth, 5 mg/kg): 0.0±0.0
Extension reflex test score ([1]; 105th day after birth, 5 mg/kg): 0.0±0.0
effect in extension reflex test as compared to placebo group [1]: significant effects
Extension reflex test score ([1]; 110th day after birth, 5 mg/kg): 0.1±0.3
Extension reflex test score ([1]; 115th day after birth, 5 mg/kg): 0.5±0.5
Extension reflex test score ([1]; 120th day after birth, 5 mg/kg): 0.9±0.7
Extension reflex test score ([1]; 125th day after birth, 5 mg/kg): 1.5±0.5
Extension reflex test score ([1]; 130th day after birth, 5 mg/kg): 1.9±0.3
Extension reflex test score ([1]; 135th day after birth, 5 mg/kg): 2.0±0.0
Extension reflex test score ([1]; 140th day after birth, 5 mg/kg): 2.0±0.0
time periods for the respective stages in comparison to placebo group [2, 3]: extended period of respective stages with significant difference
disease period extending effect in comparison to placebo group [2, 3]: significant extension of the disease period
onset delaying effect in comparison to placebo group [2, 3]: significant delaying of the day of onset
survival period extending effect in comparison to placebo group [2, 3]: significant extension of the survival period
time periods for the respective stages in comparison to placebo group [2, 4]: extended period of stage 3 (P<0.05, Mann-Whitney's U test) and stage 4 (P<0.05, Mann-Whitney's U test) with significant differences
disease period extending effect in comparison to placebo group [2, 4]: significant extension of the disease period
survival period extending effect in comparison to placebo group [2, 4]: significant extension of the survival period
day of onset [2, 5]: 113.0 ± 4.8 days
disease period [2, 5]: 24.9 ± 3.1 days
survival period [2, 5]: 136.9 ± 3.8 days
time period of clinical symptomatological stage 1 [2, 5]: 7.5±0.7 days
time period of clinical symptomatological stage 2 [2, 5]: 6.6±1.2 days
time period of clinical symptomatological stage 3 [2, 5]: 5.4±1.1 days
time period of clinical symptomatological stage 4 [2, 5]: 3.6±0.7 days
time period of clinical symptomatological stage 5 [2, 5]: 1.8±0.4 days
day of onset [2, 6]: 99.8 ± 2.4 days
disease period [2, 6]: 23.9 ± 1.7 days
survival period [2, 6]: 122.7 ± 2.1 days
time period of clinical symptomatological stage 1 [2, 6]: 7.3±0.7 days
time period of clinical symptomatological stage 2 [2, 6]: 6.0±0.7 days
time period of clinical symptomatological stage 3 [2, 6]: 5.3±0.9 days
time period of clinical symptomatological stage 4 [2, 6]: 3.5±0.5 days
time period of clinical symptomatological stage 5 [2, 6]: 1.8±0.4 days

N#Cc1cc(-c2n[nH]c(-c3ccncc3)n2)ccn1 [compound (b), 4-(5-pyridin-4-yl-1H-[1,2,4]triazol-3-yl)pyridine-2-carbonitrile]
Extension reflex test score ([1]; 70th day after birth, 5 mg/kg): 0.0±0.0
Extension reflex test score ([1]; 75th day after birth, 5 mg/kg): 0.0±0.0
Extension reflex test score ([1]; 80th day after birth, 5 mg/kg): 0.0±0.0
Extension reflex test score ([1]; 85th day after birth, 5 mg/kg): 0.0±0.0
Extension reflex test score ([1]; 90th day after birth, 5 mg/kg): 0.0±0.0
Extension reflex test score ([1]; 95th day after birth, 5 mg/kg): 0.0±0.0
Extension reflex test score ([1]; 100th day after birth, 5 mg/kg): 0.0±0.0
Extension reflex test score ([1]; 105th day after birth, 5 mg/kg): 0.0±0.0
effect in extension reflex test as compared to placebo group [1]: significant effects
Extension reflex test score ([1]; 110th day after birth, 5 mg/kg): 0.1±0.3
Extension reflex test score ([1]; 115th day after birth, 5 mg/kg): 0.5±0.5
Extension reflex test score ([1]; 120th day after birth, 5 mg/kg): 1.3±0.5
Extension reflex test score ([1]; 125th day after birth, 5 mg/kg): 1.8±0.4
Extension reflex test score ([1]; 130th day after birth): 2.0 ± 0.0
Extension reflex test score ([1]; 135th day after birth): 2.0 ± 0.0
Extension reflex test score ([1]; 140th day after birth): 2.0 ± 0.0
Extension reflex test score ([1]; from the 130th day to 140th day after birth): 2.0±0.0
time periods for the respective stages in comparison to placebo group [2, 3]: extended period of the respective stages with significant difference
disease period extending effect in comparison to placebo group [2, 3]: significant extension of the disease period
onset delaying effect in comparison to placebo group [2, 3]: significant delaying of the day of onset
survival period extending effect in comparison to placebo group [2, 3]: significant extension of the survival period
day of onset [2, 5]: 111.6 ± 3.7 days
disease period [2, 5]: 24.3 ± 3.4 days
survival period [2, 5]: 134.9 ± 3.4 days
time period of clinical symptomatological stage 1 [2, 5]: 7.4±0.7 days
time period of clinical symptomatological stage 2 [2, 5]: 6.4±1.2 days
time period of clinical symptomatological stage 3 [2, 5]: 5.3±1.2 days
time period of clinical symptomatological stage 4 [2, 5]: 3.5±0.5 days
time period of clinical symptomatological stage 5 [2, 5]: 1.7±0.5 days

From patent US8318792B2, “Therapeutic agent for amyotrophic lateral sclerosis” (Nippon Medical School Foundation, priority 2006, dated 2012)
